Laboratory results as given in patent publication US20230139328A1, “DOSAGE FORMS FOR IMPROVING ORGAN TRANSPLANTATION, GRAFT VERSUS HOST DISEASE AND STEM CELLS TRANSPLANTS” (Aphios Corporation, priority 2020, published 2023).

Tested on: neutrophil migration across HUVEC
Assay: Neutrophil transendothelial migration (TEM) restoration studies with PKC inhibitors in HUVEC
Type: cell-based, human
Details: for restoration of PMN TEM in response to LTB4 after PKC activator treatment: PKC inhibitor 30 min (1, 10, 100 nM) then 100 nM Bryostatin-1 1 h
Method: HUVEC were pretreated with G0-6983, a PKC inhibitor with dose dependent specificities for classical vs. novel PKC isoforms for 30 minutes prior to addition of Bryostatin-1 (100 nM) to block neutrophil migration. […] Neutrophil migration towards 100 nM LTB4 was initiated by adding LTB4 to the lower well.
Neutrophil Transendothelial Migration (TEM) Restoration Studies: HUVECs were pretreated with Go-6983 (1, 10, 100 nM), or Go-6976 (1, 10,100 nM) for 30 minutes, then spiked with 100 nM Bryostatin-1 for 1 hour. HUVECs previously nucleofected with PKC-δ, -ε, or control siRNA were just treated in Bryostatin-1 for 1 hour. HUVECs were washed three times and placed in a new plate containing either 500 IL 100 nM LTB4, or HBSS alone for control. Neutrophils were allowed to migrate for 3 h at 37° C. Migration was stopped by removing the inserts and migration was measured using the MPO assay.
Myeloperoxidase Assay: Neutrophil migration was measured using myeloperoxidase (MPO) analysis. Cell culture inserts were first removed, and plates were spun at 1,500 RPM for 5 min. The supernatant was removed, and MPO activity was measured using TMB/peroxide as chromogen. The reaction was stopped with sulfuric acid and absorbance was read at 450 nm using a microplate reader. All experiments were performed n=6. Data was expressed as “% neutrophil migration”, which allowed cumulative statistical analysis to be done and account for unpreventable batch-to-batch variations.

SMILES	restoration of PMN TEM in response to LTB4 after PKC activator treatment	effect of inhibitor pretreatment on Bryostatin-1 mediated reduction in migration towards LTB4, 1 nM (1 nM inhibitor 30 min before 100 nM Bryostatin-1)	effect of inhibitor pretreatment on Bryostatin-1 mediated reduction in migration towards LTB4, 10 or 100 nM (10 or 100 nM inhibitor 30 min before 100 nM Bryostatin-1)	restoration of PMN TEM in response to LTB4 after PKC activator treatment (listed as G0-6983)
CN(C)CCCn1cc(C2=C(c3c[nH]c4ccccc34)C(=O)NC2=O)c2ccccc21 [GF10923X]	did not restore PMN TEM	–	–	–
Cn1c2ccccc2c2c3c(c4c5ccccc5n(CCC#N)c4c21)CNC3=O [GO-6976]	did not restore PMN TEM	–	–	–
COc1ccc2c(c1)c(C1=C(c3c[nH]c4ccccc34)C(=O)NC1=O)cn2CCCN(C)C [Go-6983]	dose dependently restored neutrophil migration	but not by 1 nM G06983	prevented	dose dependently reversed
CC(=O)c1c(O)c(C)c(O)c(Cc2c(O)c3c(c(C(=O)/C=C/c4ccccc4)c2O)OC(C)(C)C=C3)c1O [Rottlerin]	did not restore PMN TEM	–	–	–
CN[C@@H]1C[C@H]2O[C@@](C)([C@@H]1OC)n1c3ccccc3c3c4c(c5c6ccccc6n2c5c31)C(=O)NC4 [staurosporine]	did not restore PMN TEM	–	–	–
